This test has as its target T1, Protease-activated receptor 1 (PAR1) (Homo sapiens, UniProt P25116).
T1 construct: gene F2R; PAR1 purified from 293-PAR1 cell lines
T1 sequence (P25116 42-425): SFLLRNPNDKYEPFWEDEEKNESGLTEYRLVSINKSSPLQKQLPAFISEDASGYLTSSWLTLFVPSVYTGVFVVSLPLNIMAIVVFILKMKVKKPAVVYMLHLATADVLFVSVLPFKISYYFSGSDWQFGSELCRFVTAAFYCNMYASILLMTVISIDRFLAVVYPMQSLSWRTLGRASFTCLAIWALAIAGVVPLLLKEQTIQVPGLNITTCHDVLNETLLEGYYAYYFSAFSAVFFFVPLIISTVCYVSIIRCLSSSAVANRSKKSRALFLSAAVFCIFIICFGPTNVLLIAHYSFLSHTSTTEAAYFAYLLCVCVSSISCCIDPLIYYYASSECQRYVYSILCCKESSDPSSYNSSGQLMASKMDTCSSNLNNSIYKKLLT
The experiment in a line: SPR (Biacore […], PAR1 immobilized on CM5 chip). The class given is binding.

For orientation: Kd means the constant that tells how readily two partners part at equilibrium. A lower Kd goes with higher affinity. For the compound `C[C@H]1c2cccc(O)c2C(=O)C2=C(O)[C@]3(O)C(=O)C(C(N)=O)=C(O)[C@@H](N(C)C)[C@@H]3[C@@H](O)[C@@H]21` [Doxycycline], the Kd was found to be 23 µM.

These data come from PMC5370004, “Doxycycline directly targets PAR1 to suppress tumor progression” (Oncotarget, 2017).
